US9580444B2, “Polycyclic pyrazolinone derivative and herbicide comprising same as effective component thereof” (priority 2013, dated 2017)

Assays:
Format in all cases: in vivo
[1] = system: Cyperus difformis (smallflower umbrella plant); experiment: Test Example-1: herbicidal effect by a treatment before weeds are generated under submerged conditions; settings: 500 g a.i/ha, pre-emergence treatment, about 15 days after treatment, score 0-5
Procedure, shortened: (§1)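 Pre-emergence, submerged paddy soil; WP/EC formulation diluted, applied to floodwater at seeding day at predetermined dose; visual herbicidal score 0–5 at ~15 days after treatment.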

[2] = system: Echinochloa oryzicola (barnyard grass); experiment: as above; settings: 500 g a.i/ha, pre-emergence treatment, about 15 days after treatment, score 0-5
Procedure, shortened: as §1

[3] = system: Eleocharis acicularis (needle spikerush); experiment: as above; settings: 500 g a.i/ha, pre-emergence treatment, about 15 days after treatment, score 0-5
Procedure, shortened: as §1

[4] = system: Monochoria vaginalis (monochoria); experiment: as above; settings: 500 g a.i/ha, pre-emergence treatment, about 15 days after treatment, score 0-5
Procedure, shortened: as §1

[5] = system: Scirpus juncoides (bulrush); experiment: as above; settings: 500 g a.i/ha, pre-emergence treatment, about 15 days after treatment, score 0-5
Procedure, shortened: as §1

[6] = system: other annual broad leaf weeds (Lindernia procumbens, Rotala indica, Elatine triandra); experiment: as above; settings: 500 g a.i/ha, pre-emergence treatment, about 15 days after treatment, score 0-5
Procedure, shortened: as §1

[7] = system: Abutilon theophrasti (velvetleaf); experiment: Test Example-4: herbicidal effect by a foliage treatment after weeds are generated under upland field conditions; settings: 500 g a.i/ha, foliage treatment after emergence, about 14 days after treatment, score 0-5
Procedure, shortened: (§2)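 Upland soil; seeds covered ~0.5 cm, grown 14 d. Foliar spray of diluted WP or EC, predetermined dose, 4000 L water/ha. Herbicidal effect and corn phytotoxicity scored on a six-stage 0–5 scale ~14 d post-treatment.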

[8] = system: Amaranthus viridis (green amaranthus); experiment: as above; settings: 500 g a.i/ha, foliage treatment after emergence, about 14 days after treatment, score 0-5
Procedure, shortened: as §2

[9] = system: Chenopodium album (common lambsquarters); experiment: as above; settings: 500 g a.i/ha, foliage treatment after emergence, about 14 days after treatment, score 0-5
Procedure, shortened: as §2

corn = experiment: Test Example-4: phytotoxicity by a foliage treatment after weeds are generated under upland field conditions; settings: 500 g a.i/ha, foliage treatment after emergence, about 14 days after treatment, score 0-5
Procedure, shortened: as §2

SMILES	Herbicidal effect Cyperus difformis [1]	Herbicidal effect Echinochloa oryzicola [2]	Herbicidal effect Eleocharis acicularis [3]	Herbicidal effect Monochoria vaginalis [4]	Herbicidal effect Scirpus juncoides [5]	Herbicidal effect Broadleaf weed [6]	Herbicidal effect Abutilon theophrast [7]	Herbicidal effect Amaranthus viridis [8]	Herbicidal effect Chenopodium album [9]	Phytotoxicity Corn (corn)
CCOc1cc(-c2c(Cl)n3n(c2=O)CCCC3)c(F)cc1Cl [Example 1-146]	5 (Herbicidal effect/phytotoxicity was 90% or greater)	5 (Herbicidal effect/phytotoxicity was 90% or greater)	5 (Herbicidal effect/phytotoxicity was 90% or greater)	5 (Herbicidal effect/phytotoxicity was 90% or greater)	5 (Herbicidal effect/phytotoxicity was 90% or greater)	5 (Herbicidal effect/phytotoxicity was 90% or greater)	5 (Herbicidal effect/phytotoxicity was 90% or greater)	5 (Herbicidal effect/phytotoxicity was 90% or greater)	5 (Herbicidal effect/phytotoxicity was 90% or greater)	0 (Herbicidal effect/phytotoxicity was 0% to 10%)
O=c1c(-c2cc(OCc3ccc(F)cc3)c(Cl)cc2F)c(Cl)n2n1CCCC2 [Example 1-192]	5 (Herbicidal effect/phytotoxicity was 90% or greater)	5 (Herbicidal effect/phytotoxicity was 90% or greater)	5 (Herbicidal effect/phytotoxicity was 90% or greater)	5 (Herbicidal effect/phytotoxicity was 90% or greater)	5 (Herbicidal effect/phytotoxicity was 90% or greater)	5 (Herbicidal effect/phytotoxicity was 90% or greater)	5 (Herbicidal effect/phytotoxicity was 90% or greater)	5 (Herbicidal effect/phytotoxicity was 90% or greater)	5 (Herbicidal effect/phytotoxicity was 90% or greater)	1 (Herbicidal effect/phytotoxicity was 10% to 30%)
COc1cc(-c2c(Cl)n3n(c2=O)CCCC3)c(F)cc1F [Example 1-87]	5 (Herbicidal effect/phytotoxicity was 90% or greater)	5 (Herbicidal effect/phytotoxicity was 90% or greater)	5 (Herbicidal effect/phytotoxicity was 90% or greater)	5 (Herbicidal effect/phytotoxicity was 90% or greater)	5 (Herbicidal effect/phytotoxicity was 90% or greater)	5 (Herbicidal effect/phytotoxicity was 90% or greater)	5 (Herbicidal effect/phytotoxicity was 90% or greater)	5 (Herbicidal effect/phytotoxicity was 90% or greater)	5 (Herbicidal effect/phytotoxicity was 90% or greater)	2 (Herbicidal effect/phytotoxicity was 30% to 50%)
O=c1c(-c2ccc(Cl)cc2F)c(Cl)n2n1CCCC2 [Example 1-125]	5 (Herbicidal effect/phytotoxicity was 90% or greater)	5 (Herbicidal effect/phytotoxicity was 90% or greater)	5 (Herbicidal effect/phytotoxicity was 90% or greater)	5 (Herbicidal effect/phytotoxicity was 90% or greater)	5 (Herbicidal effect/phytotoxicity was 90% or greater)	5 (Herbicidal effect/phytotoxicity was 90% or greater)	5 (Herbicidal effect/phytotoxicity was 90% or greater)	5 (Herbicidal effect/phytotoxicity was 90% or greater)	5 (Herbicidal effect/phytotoxicity was 90% or greater)	1 (Herbicidal effect/phytotoxicity was 10% to 30%)
C#CCOc1cc(-c2c(Cl)n3n(c2=O)CCCC3)c(F)cc1F [Example 1-113]	5 (Herbicidal effect/phytotoxicity was 90% or greater)	5 (Herbicidal effect/phytotoxicity was 90% or greater)	5 (Herbicidal effect/phytotoxicity was 90% or greater)	5 (Herbicidal effect/phytotoxicity was 90% or greater)	5 (Herbicidal effect/phytotoxicity was 90% or greater)	5 (Herbicidal effect/phytotoxicity was 90% or greater)	5 (Herbicidal effect/phytotoxicity was 90% or greater)	5 (Herbicidal effect/phytotoxicity was 90% or greater)	5 (Herbicidal effect/phytotoxicity was 90% or greater)	3 (Herbicidal effect/phytotoxicity was 50% to 70%)
O=c1c(-c2cc(OCC=Cc3ccc(F)cc3)c(Cl)cc2F)c(Cl)n2n1CCCC2 [Example 1-226]	5 (Herbicidal effect/phytotoxicity was 90% or greater)	5 (Herbicidal effect/phytotoxicity was 90% or greater)	5 (Herbicidal effect/phytotoxicity was 90% or greater)	5 (Herbicidal effect/phytotoxicity was 90% or greater)	5 (Herbicidal effect/phytotoxicity was 90% or greater)	5 (Herbicidal effect/phytotoxicity was 90% or greater)	5 (Herbicidal effect/phytotoxicity was 90% or greater)	5 (Herbicidal effect/phytotoxicity was 90% or greater)	5 (Herbicidal effect/phytotoxicity was 90% or greater)	3 (Herbicidal effect/phytotoxicity was 50% to 70%)
COc1cc(-c2c(Cl)n3n(c2=O)CCCC3)c(F)cc1Cl [Example 1-140]	5 (Herbicidal effect/phytotoxicity was 90% or greater)	5 (Herbicidal effect/phytotoxicity was 90% or greater)	5 (Herbicidal effect/phytotoxicity was 90% or greater)	5 (Herbicidal effect/phytotoxicity was 90% or greater)	5 (Herbicidal effect/phytotoxicity was 90% or greater)	5 (Herbicidal effect/phytotoxicity was 90% or greater)	5 (Herbicidal effect/phytotoxicity was 90% or greater)	5 (Herbicidal effect/phytotoxicity was 90% or greater)	5 (Herbicidal effect/phytotoxicity was 90% or greater)	2 (Herbicidal effect/phytotoxicity was 30% to 50%)
O=c1c(-c2ccc(Cl)c(OC3CCCC3)c2)c(Cl)n2n1CCCC2 [Example 1-52]	5 (Herbicidal effect/phytotoxicity was 90% or greater)	5 (Herbicidal effect/phytotoxicity was 90% or greater)	5 (Herbicidal effect/phytotoxicity was 90% or greater)	5 (Herbicidal effect/phytotoxicity was 90% or greater)	5 (Herbicidal effect/phytotoxicity was 90% or greater)	5 (Herbicidal effect/phytotoxicity was 90% or greater)	5 (Herbicidal effect/phytotoxicity was 90% or greater)	5 (Herbicidal effect/phytotoxicity was 90% or greater)	5 (Herbicidal effect/phytotoxicity was 90% or greater)	0 (Herbicidal effect/phytotoxicity was 0% to 10%)
O=c1c(-c2cc(OCC3CC3)c(Cl)cc2F)c(Cl)n2n1CCCC2 [Example 1-176]	5 (Herbicidal effect/phytotoxicity was 90% or greater)	5 (Herbicidal effect/phytotoxicity was 90% or greater)	5 (Herbicidal effect/phytotoxicity was 90% or greater)	5 (Herbicidal effect/phytotoxicity was 90% or greater)	5 (Herbicidal effect/phytotoxicity was 90% or greater)	5 (Herbicidal effect/phytotoxicity was 90% or greater)	5 (Herbicidal effect/phytotoxicity was 90% or greater)	5 (Herbicidal effect/phytotoxicity was 90% or greater)	5 (Herbicidal effect/phytotoxicity was 90% or greater)	2 (Herbicidal effect/phytotoxicity was 30% to 50%)
C#CCOc1cc(-c2c(Cl)n3n(c2=O)CCCC3)ccc1Cl [Example 1-62]	5 (Herbicidal effect/phytotoxicity was 90% or greater)	5 (Herbicidal effect/phytotoxicity was 90% or greater)	5 (Herbicidal effect/phytotoxicity was 90% or greater)	5 (Herbicidal effect/phytotoxicity was 90% or greater)	5 (Herbicidal effect/phytotoxicity was 90% or greater)	5 (Herbicidal effect/phytotoxicity was 90% or greater)	5 (Herbicidal effect/phytotoxicity was 90% or greater)	5 (Herbicidal effect/phytotoxicity was 90% or greater)	5 (Herbicidal effect/phytotoxicity was 90% or greater)	0 (Herbicidal effect/phytotoxicity was 0% to 10%)
